Experimental data reported in US9351974B2, “Substituted pteridinones for the treatment of cancer” (OSI Pharmaceuticals, LLC, priority 2011, dated 2016).

target: T1, His-tagged full-length RSK2 (RPS6KA3) (Homo sapiens, UniProt P51812); test: RSK2 Omnia Assay for compound IC50 determination; type: biochemical; conditions: ATP 15 μM, n=2, read-out: Mean RSK2 Biochem IC50
T1 construct: His-tagged full-length RSK2 (RPS6KA3, Invitrogen PV3323); His; purchased Invitrogen PV3323
Method: RSK1 & RSK2 Omnia Assay Protocol for Compound IC50 Determination
The Omnia Assay (Invitrogen) has been optimized for His-tagged full length RSK1 (RPS6KA1, Millipore 14-509) and for His-tagged full-length RSK2 (RPS6KA3, Invitrogen PV3323). In this assay system, Omnia ST Peptide 6 (Invitrogen KNZ1061) functions as a substrate for RSK1 or RSK2. Phosphorylation of this SOX-containing peptide results in an increase in fluorescence at 485 nm upon excitation at 360 nm.
Assays are carried out in 384-well OptiPlates (Perkin Elmer 6007290) in a total volume of 20 μL containing RSK1 ([…]) or RSK2 ([…]), Omnia ST Peptide 6 (5 μM), ATP (15 μM, Km=16.3 μM), and test compound (variable) in RSK assay buffer (50 mM HEPES, pH 7.5, 10 mM MgCl2, 0.01% Tween-20, 1% glycerol, 1 mM DTT, 1 mM EGTA, 0.01% BSA) with 1% DMSO.
IC50s for test compounds are typically determined using an 11-point three-fold serial dilution with a final assay concentration ranging either from 170 μM to […] or from 17 μM to […]. All compound concentrations are assayed in duplicate. Initial compound dilutions are prepared at 100× concentration in 100% DMSO from a 10 mM stock solution. Compounds are further diluted 1:25 in assay buffer resulting in a 4× concentrated solution.
To run the assay 5 μL of the above 4× concentrated compound solution (or 4% DMSO for positive controls) is added to the assay plate followed by 5 μL of a solution containing peptide (20 μM) and ATP (60 μM) in assay buffer. The reaction is initiated by the addition of 10 μL of RSK1 ([…]) or RSK2 ([…]) in assay buffer, or assay buffer alone for negative controls. The increase in fluorescence due to peptide phosphorylation is monitored continuously as a function of time using a Spectramax M5 plate reader (Molecular Devices) equipped with SoftMax Pro software.
The slopes from the linear portion of progress curves are used to determine IC50 values by non-linear curve-fitting to a four-parameter equation using GraphPad Prism (GraphPad Software, Inc.) or XLFit (IDBS). IC50's are determined in duplicate (n=2) and Ki values are calculated from IC50 values using the Cheng-Prusoff equation assuming a competitive mode of inhibition.

T1 sequence (P51812 whole entry): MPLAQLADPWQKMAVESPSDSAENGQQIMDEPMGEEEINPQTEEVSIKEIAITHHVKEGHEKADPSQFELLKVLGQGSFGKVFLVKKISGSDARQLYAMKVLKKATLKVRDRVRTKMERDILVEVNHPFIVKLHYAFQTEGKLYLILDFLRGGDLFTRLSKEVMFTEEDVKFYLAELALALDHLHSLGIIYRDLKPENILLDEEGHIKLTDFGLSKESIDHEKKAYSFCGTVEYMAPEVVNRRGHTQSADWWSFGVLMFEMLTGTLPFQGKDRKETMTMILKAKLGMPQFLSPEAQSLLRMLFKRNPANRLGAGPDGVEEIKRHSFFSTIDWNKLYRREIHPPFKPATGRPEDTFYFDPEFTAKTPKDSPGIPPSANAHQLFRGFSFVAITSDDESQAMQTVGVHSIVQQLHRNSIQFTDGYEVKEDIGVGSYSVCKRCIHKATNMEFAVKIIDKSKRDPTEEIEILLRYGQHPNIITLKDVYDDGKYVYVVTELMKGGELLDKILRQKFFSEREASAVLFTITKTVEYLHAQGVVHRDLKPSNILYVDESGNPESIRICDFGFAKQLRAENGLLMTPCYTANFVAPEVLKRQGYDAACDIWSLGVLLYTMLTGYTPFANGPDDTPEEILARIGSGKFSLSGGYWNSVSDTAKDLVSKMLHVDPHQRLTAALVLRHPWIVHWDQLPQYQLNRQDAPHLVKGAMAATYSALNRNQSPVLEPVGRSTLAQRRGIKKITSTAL

| SMILES | IC50 |
| --- | --- |
| C[C@H]1C(=O)N(c2ccccc2)c2cnc(Nc3ccc4[nH]ncc4c3)nc2N1C1CCCCC1 [Example 62, (7S)-8-cyclohexyl-2-(1H-indazol-5-ylamino)-7-methyl-5-phenyl-7,8-dihydropteridin-6(5H)-one] | 100 to 1000 nM |
| COC(=O)c1ccc(Nc2ncc3c(n2)N(CCC(C)C)C(C)C(=O)N3c2ccccc2)cc1 (stereo not shown) [Example 9, methyl 4-{[7-methyl-8-(3-methylbutyl)-6-oxo-5-phenyl-5,6,7,8-tetrahydropteridin-2-yl]amino}benzoate] | > 1000 nM |
| C[C@@H]1C(=O)N(c2cccc(F)c2)c2cnc(Nc3cc(F)c4[nH]ncc4c3)nc2N1C1CCC(F)(F)CC1 [compound 263, (7R)-8-(4,4-difluorocyclohexyl)-2-[(7-fluoro-1H-indazol-5-yl)amino]-5-(3-fluorophenyl)-7-methyl-7,8-dihydropteridin-6(5H)-one] | ≤ 100 nM |
| CC(C)Oc1ccc(N2C(=O)[C@@H](C)N(C3CCOCC3)c3nc(Nc4ccc5[nH]c(=O)oc5c4)ncc32)cc1C#N [compound 199, 5-[(7R)-7-methyl-6-oxo-2-[(2-oxo-2,3-dihydro-1,3-benzoxazol-6-yl)amino]-8-(tetrahydro-2H-pyran-4-yl)-7,8-dihydropteridin-5(6H)-yl]-2-(propan-2-yloxy)benzonitrile] | ≤ 100 nM |
| Cc1ccc(N2C(=O)[C@@H](C)N(C3CCCCC3)c3nc(Nc4ccc5[nH]ncc5c4)ncc32)cc1F [compound 121, (7R)-8-cyclohexyl-5-(3-fluoro-4-methylphenyl)-2-(1H-indazol-5-ylamino)-7-methyl-7,8-dihydropteridin-6(5H)-one] | ≤ 100 nM |
| COc1ccc(N2C(=O)[C@@H](C)N(C3CCCCC3)c3nc(Nc4ccc5[nH]ncc5c4)ncc32)cc1F [Example 55, (7R)-8-cyclohexyl-5-(3-fluoro-4-methoxyphenyl)-2-(1H-indazol-5-ylamino)-7-methyl-7,8-dihydropteridin-6(5H)-one] | ≤ 100 nM |
| COc1ccc(N2C(=O)[C@@H](C)N(C3CCCCC3)c3nc(NCc4cn[nH]c4)ncc32)cc1OC [compound 163] | > 1000 nM |
| C[C@@H]1C(=O)N(c2cccnc2)c2cnc(Nc3cc(F)c4[nH]ncc4c3)nc2N1[C@H]1CC[C@@H](C)CC1 [compound 240, (7R)-2-[(7-fluoro-1H-indazol-5-yl)amino]-7-methyl-8-(cis-4-methylcyclohexyl)-5-(pyridin-3-yl)-7,8-dihydropteridin-6(5H)-one] | ≤ 100 nM |
| CC[C@@H]1C(=O)N(c2cccc(C#N)c2)c2cnc(Nc3cc(F)c4[nH]ncc4c3)nc2N1C1CCCC1 [Example 217, 3-[(7R)-8-cyclopentyl-7-ethyl-2-[(7-fluoro-1H-indazol-5-yl)amino]-6-oxo-7,8-dihydropteridin-5(6H)-yl]benzonitrile] | ≤ 100 nM |
| C[C@@H]1C(=O)N(c2ccncc2)c2cnc(Nc3ccc4[nH]ncc4c3)nc2N1C1CCCCC1 [Example 20, (7R)-8-cyclohexyl-2-(1H-indazol-5-ylamino)-7-methyl-5-(pyridin-4-yl)-7,8-dihydropteridin-6(5H)-one] | ≤ 100 nM |
| COc1ccc(N2C(=O)[C@@H](C)N(C3CCC(F)(F)CC3)c3nc(Nc4ccc5[nH]c(=O)oc5c4)ncc32)cc1C#N [compound 283, 5-[(7R)-8-(4,4-difluorocyclohexyl)-7-methyl-6-oxo-2-[(2-oxo-2,3-dihydro-1,3-benzoxazol-6-yl)amino]-7,8-dihydropteridin-5(6H)-yl]-2-methoxybenzonitrile] | 100 to 1000 nM |
| CCOc1ccc(N2C(=O)[C@@H](C)N(C3CCC(F)(F)CC3)c3nc(Nc4ccc5[nH]c(=O)oc5c4)ncc32)cc1C#N [compound 284, 5-[(7R)-8-(4,4-difluorocyclohexyl)-7-methyl-6-oxo-2-[(2-oxo-2,3-dihydro-1,3-benzoxazol-6-yl)amino]-7,8-dihydropteridin-5(6H)-yl]-2-ethoxybenzonitrile] | 100 to 1000 nM |
| C[C@@H]1C(=O)N(c2cccc(C#N)c2)c2cnc(Nc3cc(F)c4[nH]ncc4c3)nc2N1C1CCC(C)(C)CC1 [Example 209, 3-[(7R)-8-(4,4-dimethylcyclohexyl)-2-[(7-fluoro-1H-indazol-5-yl)amino]-7-methyl-6-oxo-7,8-dihydropteridin-5(6H)-yl]benzonitrile] | ≤ 100 nM |
| COc1ccc(N2C(=O)[C@@H](C)N(C3CCOCC3)c3nc(Nc4cc(F)c5[nH]ncc5c4)ncc32)cn1 [compound 192, (7R)-2-[(7-fluoro-1H-indazol-5-yl)amino]-5-(6-methoxypyridin-3-yl)-7-methyl-8-(tetrahydro-2H-pyran-4-yl)-7,8-dihydropteridin-6(5H)-one] | ≤ 100 nM |
| C[C@@H]1C(=O)N(c2cc(F)cc(C#N)c2)c2cnc(Nc3ccc4[nH]ncc4c3)nc2N1C1CCCCC1 [compound 112, 3-[(7R)-8-cyclohexyl-2-(1H-indazol-5-ylamino)-7-methyl-6-oxo-7,8-dihydropteridin-5(6H)-yl]-5-fluorobenzonitrile] | ≤ 100 nM |
| CC[C@@H]1C(=O)N(c2ccc(OC)c(OC)c2)c2cnc(Nc3cc(F)c4[nH]ncc4c3)nc2N1C1CCCCC1 [compound 289, (7R)-8-cyclohexyl-5-(3,4-dimethoxyphenyl)-7-ethyl-2-[(7-fluoro-1H-indazol-5-yl)amino]-7,8-dihydropteridin-6(5H)-one] | ≤ 100 nM |
| COC(=O)c1cc(N2C(=O)[C@@H](C)N(C3CCCCC3)c3nc(Nc4ccc5[nH]ncc5c4)ncc32)cs1 [compound 177, methyl 4-[(7R)-8-cyclohexyl-2-(1H-indazol-5-ylamino)-7-methyl-6-oxo-7,8-dihydropteridin-5(6H)-yl]thiophene-2-carboxylate] | ≤ 100 nM |

The next lines start with the values.

| IC50 | SMILES |
| --- | --- |
| ≤ 100 nM | C[C@@H]1C(=O)N(c2cccc(C#N)c2)c2cnc(Nc3ccc4[nH]ncc4c3)nc2N1CC1CCOCC1 [Example 80, 3-[(7R)-2-(1H-indazol-5-ylamino)-7-methyl-6-oxo-8-(tetrahydro-2H-pyran-4-ylmethyl)-7,8-dihydropteridin-5(6H)-yl]benzonitrile] |
| ≤ 100 nM | CC(C)CCN1c2nc(Nc3cc(F)c4[nH]ncc4c3)ncc2N(c2ccc(OC(C)C)c(C#N)c2)C(=O)[C@H]1C [Example 93, 5-[(7R)-2-[(7-fluoro-1H-indazol-5-yl)amino]-7-methyl-8-(3-methylbutyl)-6-oxo-7,8-dihydropteridin-5(6H)-yl]-2-(propan-2-yloxy)benzonitrile] |
| ≤ 100 nM | COc1ccc(N2C(=O)[C@@H](C)N([C@H]3CC[C@@H](C)CC3)c3nc(Nc4cc(F)c5[nH]ncc5c4)ncc32)cc1OC [compound 238, (7R)-5-(3,4-dimethoxyphenyl)-2-[(7-fluoro-1H-indazol-5-yl)amino]-7-methyl-8-(cis-4-methylcyclohexyl)-7,8-dihydropteridin-6(5H)-one] |
| ≤ 100 nM | C[C@@H]1C(=O)N(c2cccc(C#N)c2)c2cnc(Nc3ccc4[nH]nc(F)c4c3F)nc2N1C1CCCCC1 [compound 144, 3-[(7R)-8-cyclohexyl-2-[(3,4-difluoro-1H-indazol-5-yl)amino]-7-methyl-6-oxo-7,8-dihydropteridin-5(6H)-yl]benzonitrile] |
| ≤ 100 nM | C[C@@H]1C(=O)N(c2ccccc2)c2cnc(Nc3ccc4[nH]ncc4c3)nc2N1C1CCCCC1 [Example 18, (7R)-8-cyclohexyl-2-(1H-indazol-5-ylamino)-7-methyl-5-phenyl-7,8-dihydropteridin-6(5H)-one] |
| ≤ 100 nM | C[C@@H]1C(=O)N(c2ccc3cccnc3c2)c2cnc(Nc3cc(F)c4[nH]ncc4c3)nc2N1C1CCCCC1 [compound 133, (7R)-8-cyclohexyl-2-[(7-fluoro-1H-indazol-5-yl)amino]-7-methyl-5-(quinolin-7-yl)-7,8-dihydropteridin-6(5H)-one] |
| ≤ 100 nM | CNS(=O)(=O)c1cccc(N2C(=O)[C@@H](C)N(C3CCCCC3)c3nc(Nc4ccc5[nH]ncc5c4)ncc32)c1 [Example 42, 3-[(7R)-8-cyclohexyl-2-(1H-indazol-5-ylamino)-7-methyl-6-oxo-7,8-dihydropteridin-5(6H)-yl]-N-methylbenzenesulfonamide] |
| ≤ 100 nM | C[C@@H]1C(=O)N(c2cccc(C#N)c2)c2cnc(Nc3ccc(C(=O)O)cc3)nc2N1C1CCC(F)(F)CC1 [compound 269, 4-{[(7R)-5-(3-cyanophenyl)-8-(4,4-difluorocyclohexyl)-7-methyl-6-oxo-5,6,7,8-tetrahydropteridin-2-yl]amino}benzoic acid] |
